Reference: patent US7977371B2, “Pyrrole derivative having ureido group and aminocarbonyl group as substituents” (Santen Pharmaceutical Co., Ltd., priority 2007, dated 2011)

Assays:
[1] = test system: choroidal neovascularization induced by krypton laser irradiation; assay: Evaluation test for inhibitory effect on choroidal neovascularization (rat model induced by krypton laser irradiation); type: in vivo, Brown Norway rat; conditions: po, 168 h, 30 mg/kg/day orally once a day for 7 days (day 0 to day 6), fluorescein fundus angiography on day 7, versus vehicle administration group, average of 5 to 8 eyes of 3 to 4 rats, read-out: Ratio of incidence of neovascularization (% of control)
Excerpt: 2. Evaluation Test for Inhibitory Effect on Choroidal Neovascularization
As one of the methods widely used for evaluating an inhibitory effect on choroidal neovascularization, a rat model of choroidal neovascularization induced by krypton laser irradiation has been reported in Graefe's Arch. Cli. Exp. Ophthalmol., 235, 313-319 (1997). According to the method described in this document, a ratio of incidence of choroidal neovascularization of a present compound administration group to that of a vehicle administration group was calculated using the rat model of choroidal neovascularization, and an inhibitory effect of the present compound on choroidal neovascularization was evaluated using the calculated value as an index. Specific test methods will be described below.
(Preparation of Administration Liquid of Test Compound)
A test compound was suspended in a 1% aqueous methyl cellulose solution, whereby a 6 mg/mL test compound suspension was prepared.
(Preparation of Rat Model of Choroidal Neovascularization Induced by Krypton Laser)
1) To a Brown Norway rat (male, 7 to 8 weeks of age), a mixed solution of a 5% ketamine hydrochloride injection solution and a 2% xylazine hydrochloride injection solution (7:1) was intramuscularly administered at a dose of 1 mL/kg to effect systemic anesthesia.
2) After a 0.5% tropicamide-0.5% phenylephrine hydrochloride eye drop was instilled into the eyes to cause mydriasis, photocoagulation was performed using a krypton laser photocoagulation apparatus (MC-7000, manufactured by NIDEK Co., Ltd.). The krypton laser irradiation was performed at eight spots per eye sparsely by focusing on the retinal deep layer avoiding large retinal vessels in a posterior section of ocular fundus. The photocoagulation conditions were set such that the spot size was 100 μm, the output was 100 mW and the coagulation time was 0.1 sec.
3) After the photocoagulation, the ocular fundus photography was performed (PRO III, manufactured by Kowa Company, Ltd.) to confirm the photocoagulation (krypton laser irradiation) sites.
(Administration Method of Test Compound)
1) The test compound suspension (30 mg/kg/day) was orally administered once a day for 7 consecutive days from the day of krypton laser irradiation (day 0) until day 6.
2) A 1% aqueous methyl cellulose solution was administered in the same manner as in 1) in place of the test compound suspension, and the obtained result was designated as the vehicle administration group.
1). On day 7 after the photocoagulation, 0.1 mL of a 10% aqueous fluorescein solution was injected into the tail vein, and fluorescein fundus angiography was performed (PRO III, manufactured by Kowa Company, Ltd.).
2) In the fluorescein fundus angiography, a spot where fluorescence leakage was not observed was determined to be negative and a spot where fluorescence leakage was observed was determined to be positive. With respect to photocoagulation sites where a little fluorescence leakage was observed, in the case where there were two such photocoagulation sites, it was determined to be positive.
(Calculation Formula of Incidence of Neovascularization)
An incidence (%) of neovascularization of each administration group and a ratio of incidence of neovascularization of the test compound administration group to that of the vehicle administration group were calculated from the following formulae, respectively. Incidence of Neovascularization of Each Administration Group (%)=[(Number of Positive Photocoagulation. Sites)/(Number of Total Photocoagulation Sites)]×100 Ratio of Incidence of Neovascularization of Test Compound Administration Group to that of Vehicle Administration Group (% of Control)=[(Incidence of Neovascularization of Test Compound Administration Group)/(Incidence of Neovascularization of Vehicle Administration Group)]×100 (Evaluation Results)

[2] = test system: TNF-α-induced IL-6 production in normal human skin fibroblast-derived CCD-1059Sk cells; assay: Test for measurement of inhibitory activity against TNF-α-induced IL-6 production; type: cell-based; conditions: Homo sapiens, CCD-1059Sk, 16 h, test compound at 10 μM, TNF-α stimulation 16 hours, inhibition ratio of 100% or more is indicated as 100%
Description: 1. Test for Measurement of Inhibitory Activity Against IL-6 Production
An inhibitory effect on TNF-α-induced IL-6 production in normal human skin fibroblast-derived CCD-1059Sk cells (ATCC No. CRL-2072) was evaluated. The amount of IL-6 was determined by the homogeneous time-resolved fluorescence method using HTRF™ Human IL-6 kit (Cat. No. 62IL6PEB, manufactured by CIS-Bio international, Inc.). Specific test methods will be described below.
(Preparation of Test Compound Solution)
After a test compound was dissolved in dimethyl sulfoxide, the resulting solution was diluted with D-MEM medium containing 0.1% heat-inactivated fetal bovine serum, 0.1 mM MEM non-essential amino acid solution, 100 U/mL penicillin and 100 μg/mL streptomycin (hereinafter referred to as “medium”), whereby a 40 μM test compound solution was prepared.
(Test Method and Measurement Method)
1) CCD-1059Sk cells prepared at a density of 3×10^5 cells/mL were inoculated in a 384-well plate in an amount of 10 μL per well such that the cell density was 3×10^3 cells/well.
2). After the plate was incubated at 37° C. for several hours in a CO2 incubator, 5 μL of the test compound was added to each well.
3) After the plate was incubated at 37° C. for 1 hour in a CO2 incubator, 5 μL of a 40 ng/mL TNF-α solution was added to each well.
4) After the plate was incubated at 37° C. for 16 hours in a CO2 incubator, 10 μL of a cryptate-labeled anti-IL-6 antibody and an XL665-labeled anti-IL-6 antibody containing potassium fluoride was added to each well.
5) After the plate was incubated at room temperature for several hours, a fluorescence intensity ratio (665 nm/620 nm) was determined for each well using a multimode plate reader Analyse™ HT (manufactured by Molecular Device Corporation) and Criterion Host software version 2.00 (manufactured by Molecular Device Corporation), and then, the amount of IL-6 was calculated.
6) The same procedures as in the above 1) to 5) were performed except that 0.4% dimethyl sulfoxide was added in place of the test compound, and the obtained result was designated as the control.
7) The same procedures as in the above 1) to 5) were performed except that 0.4% dimethyl sulfoxide and the medium were added in place of the test compound and the TNF-α solution, respectively, and the obtained result was designated as the background.
(Calculation Formula of IL-6 Production Inhibition Ratio)
An IL-6 production inhibition ratio (%) was calculated from the following formula. IL-6 Production Inhibition Ratio (%)=100×{1−[(Amount of IL-6 for Test Compound)−(Amount of IL-6 for Background)/(Amount of IL-6 for Control)−(Amount of IL-6 for Background)]} (Evaluation Results)

SMILES | response vs control in vivo at 30 mg/kg [1] | inhibition at 10 µM [2]
NC(=O)Nc1[nH]c(-c2ccc(F)cc2)cc1C(N)=O [Compound 1-8, 2-Aminocarbonylamino-5-(4-fluorophenyl) pyrrole-3-carboxamide] | 31% | 93%
COc1ccccc1-c1cc(C(N)=O)c(NC(N)=O)[nH]1 [Compound 1-9, 2-Aminocarbonylamino-5-(2-methoxyphenyl) pyrrole-3-carboxamide] | 40% | 100%
NC(=O)Nc1[nH]c(-c2cccc(Cl)c2)cc1C(N)=O [Compound 1-25, 2-Aminocarbonylamino-5-(3-chlorophenyl) pyrrole-3-carboxamide] | 52% | 99%
CCCOc1ccccc1-c1cc(C(N)=O)c(NC(N)=O)[nH]1 [Compound 4-4, 2-Aminocarbonylamino-5-(2-propyloxyphenyl) pyrrole-3-carboxamide] | 71% | 90%
CCCOc1ccc(F)cc1-c1cc(C(N)=O)c(NC(N)=O)[nH]1 [Compound 4-34, 2-Aminocarbonylamino-5-(5-fluoro-2-propyloxyphenyl) pyrrole-3-carboxamide] | 75% | 100%
CCCOc1ccc(Cl)cc1-c1cc(C(N)=O)c(NC(N)=O)[nH]1 [Compound 4-37, 2-Aminocarbonylamino-5-(5-chloro-2-propyloxyphenyl)pyrrole-3-carboxamide] | 69% | 97%
N#CCOc1ccc(Cl)cc1-c1cc(C(N)=O)c(NC(N)=O)[nH]1 [Compound 4-43, 2-Aminocarbonylamino-5-(5-chloro-2-cyanomethyloxyphenyl)pyrrole-3-carboxamide] | 57% | 99%
NC(=O)Nc1[nH]c(-c2cc(F)ccc2OCCO)cc1C(N)=O [Compound 4-54, 2-Aminocarbonylamino-5-[5-fluoro-2-(2-hydroxyethyloxy)phenyl]pyrrole-3-carboxamide] | 86% | 96%
